Assay results taken from patent US12331068B2, “Compositions and methods for inhibiting CD73” (Peloton Therapeutics, Inc., priority 2018, dated 2025).
Like-named read-outs stand apart in the source and are kept apart here.

Columns and labels:
[1] = biological target: T1, CD73 on U138 human neuroglioma cells (Homo sapiens, UniProt P21589); assay: CD73 Cell-Based Assay (inorganic phosphate from AMP, malachite green); conditions: AMP substrate, 2 hours at 37° C.
T1 construct: U138 cells were obtained from ATCC and cultured in DMEM with 10% FBS; host or cells: U138 human neuroglioma cells
T1 sequence (P21589 27-549): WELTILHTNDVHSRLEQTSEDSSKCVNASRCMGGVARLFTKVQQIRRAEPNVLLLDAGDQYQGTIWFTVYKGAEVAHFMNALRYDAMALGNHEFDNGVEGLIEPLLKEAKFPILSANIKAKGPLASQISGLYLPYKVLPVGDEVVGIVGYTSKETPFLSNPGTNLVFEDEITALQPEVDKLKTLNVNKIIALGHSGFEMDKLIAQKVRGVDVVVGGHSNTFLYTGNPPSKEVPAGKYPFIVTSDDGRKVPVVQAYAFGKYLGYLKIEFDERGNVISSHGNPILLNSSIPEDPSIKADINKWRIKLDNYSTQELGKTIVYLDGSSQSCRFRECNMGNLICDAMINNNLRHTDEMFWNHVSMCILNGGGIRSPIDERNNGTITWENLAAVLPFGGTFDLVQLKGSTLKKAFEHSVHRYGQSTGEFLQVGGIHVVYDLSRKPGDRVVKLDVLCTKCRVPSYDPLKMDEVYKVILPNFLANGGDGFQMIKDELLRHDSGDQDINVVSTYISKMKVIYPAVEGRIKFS
Description: U138 human neuroglioma cells were used in these experiments. U138 cells were obtained from ATCC and cultured in DMEM with 10% FBS. 2500 cells were seeded into 96-well plate with 100 μL of media the day before the experiment. […] After washing, 100 μL of buffer was added to each well, then 100 μL of a mixture of AMP substrate (200 μM) and diluted compound was added to each well. The cells were incubated at 37° C. (with 5% CO2) for 2 hours. 50 μL of supernatant was transferred to a 96-well assay plate and the concentration of inorganic phosphate was determined using malachite green reagent (R&D System; Cat: DY996).

Human CD73 = biological target: T2, Human CD73 (Homo sapiens, UniProt P21589); assay: CD73 Enzyme Assay (EnzChek PNP/MESG kinetic readout of AMP hydrolysis); format: biochemical; conditions: 0.25 nM hCD73, 25 μM AMP
T2 construct: purchased R&D Systems; host or cells: CHO cells
T2 sequence (P21589 27-549): T1 sequence (P21589 27-549)
Description: A compound of the present disclosure (5 μL) was transferred to a 384-well assay plate. The compound was added in a 15 point, 3-fold serial dilution (300 μM to 0.0002 μM) in DMSO. […] The plate was immediately placed in a plate reader (Synergy 2 or Spark 10), and a reading was taken every minute for 10 to 20 minutes in a kinetic run at 360 nm. The linear portion of the curve was used to determine the observed rate (initial velocity). Low signal controls containing 100 μM adenosine 5′-(α,β-methylene) diphosphate and high signal controls containing no compound were measured for each plate.
IC50 values were calculated using Dotmatics template equation for 4-parameter fit. Results are expressed as % inhibition using the following equation: […]

[2] = read-out: CD73 Cell-Based assay IC50
[3] = read-out: CD73 Enzyme Assay IC50

| SMILES | IC50 [1, 2] [nM] | IC50 (Human CD73; [3]) [nM] | IC50 ([1]; read-out: IC50) [nM] | IC50 (Human CD73; low signal control compound, read-out: IC50) [nM] |
| --- | --- | --- | --- | --- |
| N#Cc1c(Cl)nc2c(ccn2[C@@H]2O[C@H](COCP(=O)(O)O)[C@@H](O)[C@H]2O)c1NC1CCCC1 [Compound 1, ((((2R,3S,4R,5R)-5-(6-chloro-5-cyano-4-(cyclopentylamino)-1H-pyrrolo[2,3-b]pyridin-1-yl)-3,4-dihydroxytetrahydrofuran-2-yl)methoxy)methyl)phosphonic acid] | < 10 | < 10 |  |  |
| N#Cc1c(OCCO)nc2c(ccn2[C@@H]2O[C@H](COCP(=O)(O)O)[C@@H](O)[C@H]2O)c1NC1CCCC1 [Compound 2] |  | 10 to 100 |  |  |
| N#Cc1c(Cl)nc2c(ccn2[C@@H]2O[C@H](COP(=O)(O)CP(=O)(O)O)[C@@H](O)[C@H]2O)c1NC1CCCC1 [Compound 3, (((((2R,3S,4R,5R)-5-(6-chloro-5-cyano-4-(cyclopentylamino)-1H-pyrrolo[2,3-b]pyridin-1-yl)-3,4-dihydroxytetrahydrofuran-2-yl)methoxy)(hydroxy)phosphoryl)methyl)phosphonic acid] | < 10 | < 10 |  |  |
| N#Cc1c(Cl)nc2c(ccn2[C@@H]2O[C@H](COCP(=O)(O)O)[C@@H](O)[C@H]2O)c1N[C@H]1CCC(F)(F)C1 [Compound 4] | < 10 | < 10 |  |  |
| N#Cc1c(Cl)nc2c(ccn2[C@@H]2O[C@H](CS(=O)(=O)CP(=O)(O)O)[C@@H](O)[C@H]2O)c1N[C@H]1CCC(F)(F)C1 [Compound 5] | < 10 | < 10 |  |  |
| C[C@@H](Nc1c(C#N)c(Cl)nc2c1ccn2[C@@H]1O[C@H](COCP(=O)(O)O)[C@@H](O)[C@H]1O)c1ccc(F)cc1 [Compound 7] | < 10 | < 10 |  |  |
| C[C@H](Nc1c(C#N)c(Cl)nc2c1ccn2[C@@H]1O[C@H](COCP(=O)(O)O)[C@@H](O)[C@H]1O)c1ccc(F)cc1 [Compound 8] | < 10 | < 10 |  |  |
| N#Cc1c(Cl)nc2c(ccn2[C@@H]2O[C@H](COCP(=O)(O)O)[C@@H](O)[C@H]2O)c1NC1CCC1 [Compound 9] | < 10 | < 10 |  |  |
| N#Cc1c(Cl)nc2c(ccn2[C@@H]2O[C@H](COCP(=O)(O)O)[C@@H](O)[C@H]2O)c1NC1CC(F)(F)C1 [Compound 10] | < 10 | < 10 |  |  |
| N#Cc1c(Cl)nc2c(ccn2[C@@H]2O[C@H](COCP(=O)(O)O)[C@@H](O)[C@H]2O)c1N1CC2CCCC2C1 (stereo partly shown) [Compound 11] | < 10 | < 10 |  |  |
| N#Cc1c(Cl)nc2c(ccn2[C@@H]2O[C@H](COCP(=O)(O)O)[C@@H](O)[C@H]2O)c1N1CC2CC2C1 (stereo partly shown) [Compound 12] | < 10 | < 10 |  |  |
| N#Cc1c(Cl)nc2c(ccn2[C@@H]2O[C@H](COCP(=O)(O)O)[C@@H](O)[C@H]2O)c1N1CCC(F)(F)C1 [Compound 13, ((((2R,3S,4R,5R)-5-(6-chloro-5-cyano-4-(3,3-difluoropyrrolidin-1-yl)-1H-pyrrolo[2,3-b]pyridin-1-yl)-3,4-dihydroxytetrahydrofuran-2-yl)methoxy)methyl)phosphonic acid] | < 10 | < 10 |  |  |
| C[C@H](Nc1c(C#N)c(Cl)nc2c1ccn2[C@@H]1O[C@H](CS(=O)(=O)CP(=O)(O)O)[C@@H](O)[C@H]1O)c1ccc(F)cc1 [Compound 18, (((((2S,3S,4R,5R)-5-(6-chloro-5-cyano-4-(((S)-1-(4-fluorophenyl)ethyl)amino)-1H-pyrrolo[2,3-b]pyridin-1-yl)-3,4-dihydroxytetrahydrofuran-2-yl)methyl)sulfonyl)methyl)phosphonic acid] | < 10 | < 10 |  |  |
| N#Cc1c(Cl)nc2c(ccn2[C@@H]2O[C@H](CS(=O)(=O)CP(=O)(O)O)[C@@H](O)[C@H]2O)c1NC1CCC1 [Compound 19] | < 10 | < 10 |  |  |
| N#Cc1c(Cl)nc2c(ccn2[C@@H]2O[C@H](CS(=O)(=O)CP(=O)(O)O)[C@@H](O)[C@H]2O)c1NC1CC(F)(F)C1 [Compound 20] | < 10 | < 10 |  |  |
| N#Cc1c(Cl)nc2c(ccn2[C@@H]2O[C@H](CS(=O)(=O)CP(=O)(O)O)[C@@H](O)[C@H]2O)c1N1CC2CCCC2C1 (stereo partly shown) [Compound 21] | < 10 | < 10 |  |  |
| N#Cc1c(Cl)nc2c(ccn2[C@@H]2O[C@H](CS(=O)(=O)CP(=O)(O)O)[C@@H](O)[C@H]2O)c1N1CC2CC2C1 (stereo partly shown) [Compound 22] | < 10 | < 10 |  |  |
| N#Cc1c(Cl)nc2c(ccn2[C@@H]2O[C@H](CS(=O)(=O)CP(=O)(O)O)[C@@H](O)[C@H]2O)c1NC1CCCC1 [Compound 25, (((((2S,3S,4R,5R)-5-(6-chloro-5-cyano-4-(cyclopentylamino)-1H-pyrrolo[2,3-b]pyridin-1-yl)-3,4-dihydroxytetrahydrofuran-2-yl)methyl)sulfonyl)methyl)phosphonic acid] | < 10 | < 10 | 0.1 |  |
| N#Cc1c(Cl)nc2c(ccn2[C@@H]2O[C@H](COCP(=O)(O)O)[C@@H](O)[C@H]2O)c1NC1CC2CC2C1 (stereo partly shown) [Compound 26] | < 10 | < 10 |  |  |
| C[C@@H](Nc1c(C#N)c(Cl)nc2c1ccn2[C@@H]1O[C@H](CS(=O)(=O)CP(=O)(O)O)[C@@H](O)[C@H]1O)c1ccc(F)cc1 [Compound 27, (((((2S,3S,4R,5R)-5-(6-chloro-5-cyano-4-(((R)-1-(4-fluorophenyl)ethyl)amino)-1H-pyrrolo[2,3-b]pyridin-1-yl)-3,4-dihydroxytetrahydrofuran-2-yl)methyl)sulfonyl)methyl)phosphonic acid] | < 10 | < 10 |  |  |
| N#Cc1c(Cl)nc2c(ccn2[C@@H]2O[C@H](COP(=O)(O)CP(=O)(O)O)[C@@H](O)[C@H]2O)c1NC1CC2CC2C1 (stereo partly shown) [Compound 28] | < 10 | < 10 |  |  |
| N#Cc1c(Cl)nc2c(ccn2[C@@H]2O[C@H](COP(=O)(O)CP(=O)(O)O)[C@@H](O)[C@H]2O)c1N1CC2CC2C1 (stereo partly shown) [Compound 29] | < 10 | < 10 |  |  |
| Nc1ncnc2c1ncn2[C@@H]1O[C@H](COP(=O)(O)CP(=O)(O)O)[C@@H](O)[C@H]1O [adenosine 5′-(α,β-methylene) diphosphate, reference compound] |  |  |  | 50 |

Further lines, with some results ahead:

| IC50 [1, 2] [nM] | IC50 (Human CD73; [3]) [nM] | IC50 ([1]; read-out: IC50) [nM] | SMILES | IC50 (Human CD73; low signal control compound, read-out: IC50) [nM] |
| --- | --- | --- | --- | --- |
|  | 10 to 100 |  | CNC(=O)c1c(Cl)nc2c(ccn2C2O[C@H](COCP(=O)(O)O)[C@@H](O)[C@H]2O)c1NC1CCCC1 (stereo partly shown) [Compound 40] |  |
|  | > 100 |  | N#Cc1c(OCCO)nc2c(ccn2[C@@H]2O[C@H](COCP(=O)(O)O)[C@@H](O)[C@H]2O)c1N1CC2CCCC2C1 (stereo partly shown) [Compound 52] |  |
|  | 10 to 100 |  | N#Cc1c(Cl)nc2c(ccn2[C@@H]2O[C@H](COCP(=O)(O)O)[C@@H](O)[C@@H]2F)c1N1CCC(F)(F)C1 [Compound 98] |  |
|  | > 100 |  | N#Cc1c(Cl)nc2c(cnn2[C@@H]2O[C@H](COCP(=O)(O)O)[C@@H](O)[C@@H]2F)c1N1CCC(F)(F)C1 [Compound 99, ((((2R,3R,4S,5R)-5-(6-chloro-5-cyano-4-(3,3-difluoropyrrolidin-1-yl)-1H-pyrazolo[3,4-b]pyridin-1-yl)-4-fluoro-3-hydroxytetrahydrofuran-2-yl)methoxy)methyl)phosphonic acid] |  |
|  | 10 to 100 |  | N#Cc1c(Cl)nc2c(ncn2[C@@H]2O[C@H](COCP(=O)(O)O)[C@@H](O)[C@@H]2F)c1N1CCC(F)(F)C1 [Compound 100] |  |
|  | > 100 |  | N#Cc1nc2c(ccn2[C@@H]2O[C@H](CS(=O)(=O)CP(=O)(O)O)[C@@H](O)[C@@H]2F)c(N)c1C#N [Compound 189] |  |
|  | < 10 |  | C[C@@H](Nc1c(C#N)c(Cl)nc2c1cnn2[C@@H]1O[C@H](COP(=O)(O)CP(=O)(O)O)[C@@H](O)[C@H]1O)c1ccc(F)cn1 [Compound 258] |  |
|  | < 10 |  | C[C@H](Nc1c(C#N)c(Cl)nc2c1cnn2[C@@H]1O[C@H](COP(=O)(O)CP(=O)(O)O)[C@@H](O)[C@H]1O)c1ccccc1F [Compound 260] |  |
|  | < 10 |  | C[C@@H](Nc1c(C#N)c(Cl)nc2c1cnn2[C@@H]1O[C@H](COP(=O)(O)CP(=O)(O)O)[C@@H](O)[C@H]1O)c1ccc(F)cc1 [Compound 270] |  |
|  | < 10 |  | C[C@H](Nc1c(C#N)c(Cl)nc2c1cnn2[C@@H]1O[C@H](COP(=O)(O)CP(=O)(O)O)[C@@H](O)[C@H]1O)c1ccc(F)cn1 [Compound 271] |  |
